Tests used:
[1] = Inhibition of PrPSc formation in mouse SMB cells at 10 uM relative to control; type: functional
[2] = Inhibition of PrPSc formation in mouse SMB cells; type: functional, cell-based
[3] = target: Major prion protein (Mus musculus) (UniProt P04925); test: Binding affinity to mouse prion protein by surface plasmon resonance assay
[4] = target: Major prion protein (Homo sapiens) (UniProt P04156); test: Binding affinity to human prion protein by surface plasmon resonance assay
[5] = Inhibition of PrPSc formation in mouse SMB cells at 0.05 uM relative to control; type: functional
[6] = Inhibition of PrPSc formation in mouse SMB cells at 7.5 uM relative to control; type: functional
[7] = Toxicity against mouse SMB cells after 5 days by MTT assay; type: cell-based; settings: 120 h
[8] = Inhibition of PrPSc formation in mouse SMB cells at 5 uM relative to control; type: functional
[9] = Toxicity against mouse SMB cells at 10 uM after 5 days by MTT assay; type: cell-based; settings: 120 h
[10] = Inhibition of PrPSc formation in mouse SMB cells at 1 uM relative to control; type: functional

Chain of Major prion protein (Mus musculus) (P04925 whole entry): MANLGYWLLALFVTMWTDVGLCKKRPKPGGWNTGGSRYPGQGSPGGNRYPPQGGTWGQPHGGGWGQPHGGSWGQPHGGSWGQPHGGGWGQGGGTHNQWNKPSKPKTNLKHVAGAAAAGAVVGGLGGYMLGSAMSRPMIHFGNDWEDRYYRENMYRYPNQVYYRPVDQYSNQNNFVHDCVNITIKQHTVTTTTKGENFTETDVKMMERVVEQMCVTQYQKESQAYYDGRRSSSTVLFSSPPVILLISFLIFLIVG

SMILES	inhibition at 10 µM [1] [%]	RUmax [3] [%]	RUmax [4] [%]	also measured
N#Cc1c(N)nc(SCc2ccccc2)c(C#N)c1-c1ccc2c(c1)OCO2	79			
COC(=O)c1ccc(-c2c(C#N)c(N)nc(Sc3cccc(C(=O)OC)c3)c2C#N)cc1				EC50 [2]: 8000 nM
N#Cc1c(N)nc(SCc2ccccc2)c(C#N)c1-c1cccs1	81	52.6	55.5	
COC(=O)c1ccc(Sc2nc(N)c(C#N)c(-c3ccc4c(c3)OCCO4)c2C#N)cc1		0	6	inhibition at 0.05 µM [5]: 23%
N#Cc1c(N)nc(Sc2cccc(Cl)c2)c(C#N)c1-c1ccc2c(c1)OCO2	96	10.5	78.6	
COC(=O)c1ccc(-c2c(C#N)c(N)nc(Sc3ccc(O)cc3)c2C#N)cc1				inhibition at 7.5 µM [6]: 45%
COC(=O)c1ccc(-c2c(C#N)c(N)nc(SCc3ccccc3)c2C#N)cc1	107	0	9.3	
N#Cc1c(N)nc(Sc2ccc(Cl)cc2)c(C#N)c1-c1ccco1	73	44.8	37	
COC(=O)c1cccc(Sc2nc(N)c(C#N)c(-c3cccs3)c2C#N)c1	87			
COC(=O)c1ccc(-c2c(C#N)c(N)nc(Sc3ccc(Cl)cc3)c2C#N)cc1	73	2.4	10.6	
N#Cc1c(N)nc(Sc2ccc(O)cc2)c(C#N)c1-c1ccc2c(c1)OCCO2				Activity [7]: Toxic
COC(=O)c1cccc(Sc2nc(N)c(C#N)c(-c3ccco3)c2C#N)c1	69	2.2	26.9	
N#Cc1c(N)nc(Sc2ccccc2)c(C#N)c1-c1ccc2c(c1)OCCO2	61	0	27.9	
N#Cc1c(N)nc(Sc2cccc(O)c2)c(C#N)c1-c1ccc2c(c1)OCCO2	86			
N#Cc1c(N)nc(Sc2cccc(O)c2)c(C#N)c1-c1ccc(Cl)cc1	73			
N#Cc1c(N)nc(SCc2ccccc2)c(C#N)c1-c1ccc2c(c1)OCCO2	94			
N#Cc1c(N)nc(SCc2ccccc2)c(C#N)c1-c1ccc(Cl)cc1	92	0	8.6	
N#Cc1c(N)nc(Sc2cccc(Cl)c2)c(C#N)c1-c1ccc2c(c1)OCCO2		4.3	11.3	EC50 [2]: 2500 nM
COC(=O)c1ccc(Sc2nc(N)c(C#N)c(-c3ccco3)c2C#N)cc1	69			
N#Cc1c(N)nc(Sc2ccccc2O)c(C#N)c1-c1cccs1	65	6.1	16.9	
N#Cc1c(N)nc(Sc2cccc(Cl)c2)c(C#N)c1-c1ccc(Cl)cc1	71			
N#Cc1c(N)nc(Sc2cccc(O)c2)c(C#N)c1-c1cccs1	77			
N#Cc1c(N)nc(Sc2ccc(O)cc2)c(C#N)c1-c1ccco1		19.6	21.9	inhibition at 0.05 µM [5]: 24%
N#Cc1c(N)nc(Sc2cccc(Cl)c2)c(C#N)c1-c1cccs1	84	72.2	124	
COC(=O)c1ccc(Sc2nc(N)c(C#N)c(-c3ccc(Cl)cc3)c2C#N)cc1				Activity [7]: Toxic
N#Cc1c(N)nc(Sc2ccc(O)cc2)c(C#N)c1-c1cccc(O)c1	85			
N#Cc1c(N)nc(Sc2ccc(O)cc2)c(C#N)c1-c1ccc2c(c1)OCO2	82			

SMILES	inhibition at 10 µM [1] [%]	RUmax [3] [%]	RUmax [4] [%]	also measured
N#Cc1c(N)nc(Sc2ccccc2O)c(C#N)c1-c1ccc2c(c1)OCCO2	89	4.9	13.6	
N#Cc1c(N)nc(Sc2ccc(Cl)cc2)c(C#N)c1-c1ccc2c(c1)OCO2	67			
N#Cc1c(N)nc(Sc2ccc(O)cc2)c(C#N)c1-c1cccs1	86			
COC(=O)c1ccc(Sc2nc(N)c(C#N)c(-c3cccs3)c2C#N)cc1	90			
N#Cc1c(N)nc(Sc2ccc(Cl)cc2)c(C#N)c1-c1cccs1		0	8.8	EC50 [2]: 3000 nM
N#Cc1c(N)nc(SCc2ccccc2)c(C#N)c1-c1ccco1	111			
COC(=O)c1cccc(Sc2nc(N)c(C#N)c(-c3cccc(O)c3)c2C#N)c1	123			
COC(=O)c1cccc(Sc2nc(N)c(C#N)c(-c3ccc4c(c3)OCCO4)c2C#N)c1				inhibition at 0.05 µM [5]: 44%
COC(=O)c1ccc(-c2c(C#N)c(N)nc(Sc3ccccc3O)c2C#N)cc1	72	0	5.7	
COC(=O)c1ccc(-c2c(C#N)c(N)nc(Sc3cccc(O)c3)c2C#N)cc1	77	0	8.4	
N#Cc1c(N)nc(Sc2ccc(Cl)cc2)c(C#N)c1-c1cccc(O)c1		8.9	15.7	EC50 [2]: 3000 nM
N#Cc1c(N)nc(Sc2cccc(Cl)c2)c(C#N)c1-c1cccc(O)c1				inhibition at 5 µM [8]: 36%; Activity [9]: Toxic
N#Cc1c(N)nc(Sc2cccc(O)c2)c(C#N)c1-c1ccc2c(c1)OCO2	75	138	250	
N#Cc1c(N)nc(SCc2ccccc2)c(C#N)c1-c1cccc(O)c1	113	112	96.5	
COC(=O)c1ccc(-c2c(C#N)c(N)nc(Sc3cccc(Cl)c3)c2C#N)cc1				inhibition at 5 µM [8]: 46%
N#Cc1c(N)nc(Sc2cccc(Cl)c2)c(C#N)c1-c1ccco1	94			
N#Cc1c(N)nc(Sc2ccccc2)c(C#N)c1-c1ccc2c(c1)OCO2	86			
COC(=O)c1cccc(Sc2nc(N)c(C#N)c(-c3ccc4c(c3)OCO4)c2C#N)c1	75	70.4	156	
COC(=O)c1cccc(Sc2nc(N)c(C#N)c(-c3ccc(Cl)cc3)c2C#N)c1		0	6.2	inhibition at 1 µM [10]: 63%
COC(=O)c1ccc(Sc2nc(N)c(C#N)c(-c3cccc(O)c3)c2C#N)cc1	70			
N#Cc1c(N)nc(Sc2ccc(Cl)cc2)c(C#N)c1-c1ccc(Cl)cc1	72	1.6	19.3	
N#Cc1c(N)nc(Sc2ccc(Cl)cc2)c(C#N)c1-c1ccc2c(c1)OCCO2	68			
N#Cc1c(N)nc(Sc2ccc(O)cc2)c(C#N)c1-c1ccc(Cl)cc1	90			
N#Cc1c(N)nc(Sc2cccc(O)c2)c(C#N)c1-c1cccc(O)c1				inhibition at 5 µM [8]: 36%; Activity [9]: Toxic
N#Cc1c(N)nc(Sc2ccccc2O)c(C#N)c1-c1ccc(Cl)cc1	76	0	9.1	
COC(=O)c1ccc(Sc2nc(N)c(C#N)c(-c3ccc(C(=O)OC)cc3)c2C#N)cc1				EC50 [2]: 9000 nM
